The test system of series [1] is Mycobacterium vaccae (JMRC:STI:10670). The series can be described thus: MIC determination. It is filed as cell-based. Particulars: for MIC: Mycolicibacterium vaccae, n = 1; for Selectivity index: ratio between CC50 (HeLa) and MIC M. vaccae. How it is done:
(§1) Supplementary Method 5: Biological Assays
(§2) Minimal inhibitory concentrations were determined against Mycobacterium vaccae (JMRC:STI:10670) and Mycobacterium smegmatis (JMRC:STH:00056). M. vaccae and M. smegmatis cultures were grown 48 h at 32 °C in a medium consisting of glycerol (1%), beef extract (0.5%), peptone from casein (0.5%) and sodium chloride (0.3%). Serial dilutions of the DMSO test item solutions (1 mg∙mL -1) were prepared at 100 µL scale in 96 well plates in Mueller Hinton broth starting at 200 µg∙mL -1 (highest) to cover a final concentration range of 100 to 0.05 µg∙mL -1. Each plate was equipped with a series of DMSO and ciprofloxacin dilutions as quality controls. 96 well plates were inoculated with 100 µL diluted culture (Mueller Hinton bullion) at a final concentration of 5∙10 5 and incubated at 37 °C for 42 h. Growth/no growth was visually inspected.
(§3) 2. Proliferation and cytotoxicity assay
(§4) Cells and culture conditions
(§5) The following cell lines and media were used:
(§6) Cell line Cell culture medium
(§7) Cells were grown in the appropriate cell culture medium supplemented with 10 mL/L ultraglutamine 1 […]
(§8) heat inactivated fetal bovine serum (GIBCO Life Technologies 10270-106) at 37 °C in 5% CO 2 in high density polyethylene flasks (NUNC 156340).
(§9) To decide if the compounds have an antiproliferative and/or a cytotoxic effect on human cells, cell death and retardation of cell proliferation were assessed. Under our experimental conditions, the optical density measured from the CellTiter-Blue® reagent and methylene blue assay is proportional to the […]
The test substances were dissolved in DMSO and further diluted in the cell culture medium. The adherent cells were harvested at the logarithmic growth phase after soft trypsinization using 0.25% trypsin in PBS containing 0.02% EDTA (Biochrom KG L2163). For each experiment, approximately 10,000 cells were seeded with 0.1 mL culture medium per well of the 96-well microplates (HUVEC: flat bottomed NUNC 167008, K-562: round bottomed NUNC 163320). To test the antiproliferative

Series [2] relates to Mycobacterium smegmatis (JMRC:STH:00056). Briefly: MIC determination. The class given is cell-based. The settings on record: Mycolicibacterium smegmatis; n = 1. How it is done:
as §1
as §2, with “inspected. […]” for “inspected.”

The next series can be described thus: Cytotoxicity assay. Particulars: human, n = 4. The class given is cell-based. How it is done: (§10) Supplementary Method 5: Biological Assays […]
as §3, §4, §5, §6, §7, §8, §9
The test substances were dissolved in DMSO and further diluted in the cell culture medium. The adherent cells were harvested at the logarithmic growth phase after soft trypsinization using 0.25% trypsin in PBS containing 0.02% EDTA (Biochrom KG L2163). For each experiment, approximately 10,000 cells were seeded with 0.1 mL culture medium per well of the 96-well microplates (HUVEC: flat bottomed NUNC 167008, K-562: round bottomed NUNC 163320). […]
For the cytotoxicity assay, HeLa cells were preincubated for 48 hours without the test substances. To test the cytotoxic effect on HeLa, dilutions of the compounds were carried out carefully on the subconfluent monolayers of HeLa cells after the preincubation time. After incubation time, the cytolytic effect of compounds was analysed in comparison to the negative control. The 50% cytotoxic concentration (CC 50 ) was defined as the test compound concentration required for destruction of the cell monolayer by 50% compared to untreated control.
(§11) Cells were incubated with dilutions of the test substances in microplates for 72 hours at 37 °C in a humidified atmosphere and 5% CO 2. […]
(§12) cytotoxicity and the inhibition of cell proliferation. The number of viable cells was determined subsequent to staining with CellTiter-Blue® reagent or methylene blue. […]
(§13) HUVEC and HeLa cells: The adherent HUVEC and HeLa cells were fixed by glutaraldehyde (MERCK […]
(§14) gently washing, the stain was eluted by adding 0.2 mL of hydrochloric acid (0.33 M) to each well. The optical densities were measured at 660 nm (methylene blue) in SUNRISE microplate reader (TECAN).
(§15) General remarks: Signals from the methylene blue and CellTiter-Blue® reagent are proportional to the number of viable cells. A repeat determination has been conducted in all experiments, four replicates were assayed. The calculations of the different values of GI 50 and CC 50 were performed with the software

The next series relates to HUVEC. The series can be described thus: Proliferation assay. It is filed as cell-based. The settings on record: Homo sapiens, 72 h, n = 4. How it is done: as §10, §3, §4, §5, §6, §7, §8, §9
(§16) The test substances were dissolved in DMSO and further diluted in the cell culture medium. The adherent cells were harvested at the logarithmic growth phase after soft trypsinization using 0.25% trypsin in PBS containing 0.02% EDTA (Biochrom KG L2163). For each experiment, approximately 10,000 cells were seeded with 0.1 mL culture medium per well of the 96-well microplates (HUVEC: flat bottomed NUNC 167008, K-562: round bottomed NUNC 163320). To test the antiproliferative […]
(§17) effect of test compounds on HUVEC and K-562, the cells were incubated for 72 hours in plates prepared with control and different dilutions of test substances. […]
(§18) of proliferation compared to the untreated control. […]
as §11, §12, §13, §14, §15

For the next series, the system named is K-562. The series can be described thus: Proliferation assay. The class given is cell-based. The settings on record: Homo sapiens, K562; 72 h, n = 4. How it is done: as §10, §3, §4, §5, §6, §7, §8, §9, §16, §17, §18, §11
cytotoxicity and the inhibition of cell proliferation. The number of viable cells was determined subsequent to staining with CellTiter-Blue® reagent or methylene blue.
K-562 cells: The influence of test substances on cell proliferation of K-562 was determined via the CellTiter-Blue® assay (PROMEGA). Briefly, viable cells are able to reduce the indicator dye resazurin […]
dye. Thus, formation of resorufin was followed by measuring absorption at 570 nm and subtracting absorption measured at 600 nm. […]
as §15

Details of series [3]: method as in PMID 28097740. Particulars: preclinical studies ref 12; cited from earlier work.

By MIC is commonly meant the lowest concentration that inhibits growth of the organism. By CC50 is commonly meant the concentration that lowers cell viability or growth by half. High values mean lower toxicity to the cells, low ones greater toxicity to the cells. By GI50 is commonly meant the concentration giving 50% growth inhibition.

Converted amounts (≈) assume the structure as drawn.

`CCOC(=O)c1cc([N+](=O)[O-])c2sc(N3CCC4(CC3)OC[C@H](C)O4)nc(=O)c2c1` [Compound 6b]: the MIC in series [1] is 1.79 µM (≈ 0.779 µg/mL); in series [2] it was 57.4 µM (≈ 25 µg/mL). In addition, the Selectivity index in series [1] is reported as more than 64. In the series “Cytotoxicity assay”, this molecule yielded a cytotoxic concentration (CC50) at 72 h of more than 115 µM. For the same molecule, the GI50 with HUVEC was found to be 49.1 ± 1.1 µM; in the series with K-562, 50.7 ± 6.9 µM.

Take `C[C@H]1COC2(CCN(c3nc(=O)c4cc(C5=NCCO5)cc([N+](=O)[O-])c4s3)CC2)O1` [Compound 7e]: the figures for the MIC in series [1] and in series [2] were 14.5 µM (≈ 6.27 µg/mL) and 28.9 µM (≈ 12.5 µg/mL), respectively. Also, the Selectivity index in series [1] was more than 8. The molecule also displayed a CC50 at 72 h in “Cytotoxicity assay” of more than 116 µM. Besides, the concentration for 50% growth inhibition (GI50) in the series with HUVEC and in the series on K-562 was more than 116 µM throughout.

For the molecule `C[C@H]1COC2(CCN(c3nc(=O)c4cc(C(F)(F)F)cc([N+](=O)[O-])c4s3)CC2)O1` [Compound 1, reference compound], the MIC in series [1] came out at 0.004 µM (≈ 0.00173 µg/mL); in series [2], 0.058 µM (≈ 0.025 µg/mL). For the same molecule, in series [1], the Selectivity index is more than 31248. This molecule also registered a CC50 at 72 h in the series “Cytotoxicity assay” of more than 116 µM. For the same molecule, the GI50 in the series with HUVEC and with K-562 was more than 116 µM throughout. The “HMC formation in vivo (in words)” value in series [3] is “significant hydride-Meisenheimer complex (HMC) formation in vivo”.

`CNC(=O)c1cc([N+](=O)[O-])c2sc(N3CCC4(CC3)OC[C@H](C)O4)nc(=O)c2c1` [Compound 7b]: the MIC in series [1] was 59.5 µM (≈ 25 µg/mL); in series [2], 119 µM (≈ 50 µg/mL). Further, the Selectivity index in series [1] was more than 2. Moreover, in the series “Cytotoxicity assay”, the CC50 at 72 h was more than 119 µM. For the same molecule, the GI50 in the series on HUVEC and with K-562 was more than 119 µM in each case.

As to `C[C@H]1COC2(CCN(c3nc(=O)c4cc(C(=O)OCCO)cc([N+](=O)[O-])c4s3)CC2)O1` [Compound 6d], the MIC is 13.8 µM (≈ 6.23 µg/mL) in series [1] and 55.4 µM (≈ 25 µg/mL) in series [2]. The Selectivity index in series [1] was more than 8. The molecule also had a CC50 at 72 h in the series “Cytotoxicity assay” of more than 111 µM. Further, the GI50 with HUVEC turned out to be 73.3 ± 4.2 µM; in the series on K-562 it was 17.9 ± 1.1 µM.

Regarding `C[C@H]1COC2(CCN(c3nc(=O)c4cc(C(=O)NCCO)cc([N+](=O)[O-])c4s3)CC2)O1` [Compound 7d], the results for the MIC in series [1] and in series [2] were 27.7 µM (≈ 12.5 µg/mL) and 111 µM (≈ 50 µg/mL), respectively. Moreover, in series [1], the Selectivity index is more than 4. Also, the CC50 at 72 h in “Cytotoxicity assay” was more than 111 µM. The GI50 in the series on HUVEC and in the series with K-562 was more than 111 µM throughout.

For `C[C@H]1COC2(CCN(c3nc(=O)c4cc(C(N)=O)cc([N+](=O)[O-])c4s3)CC2)O1` [Compound 7a], the MIC in series [1] came out at 61.5 µM (≈ 25 µg/mL); in series [2], 123 µM (≈ 50 µg/mL). In addition, the Selectivity index in series [1] was more than 2. Besides, the CC50 at 72 h in “Cytotoxicity assay” is more than 123 µM. In addition, the GI50 in the series with HUVEC and in the series on K-562 was more than 123 µM throughout.

On to `C[C@H]1COC2(CCN(c3nc(=O)c4cc(C(=O)OCCOC(=O)c5cc([N+](=O)[O-])c6sc(N7CCC8(CC7)OC[C@H](C)O8)nc(=O)c6c5)cc([N+](=O)[O-])c4s3)CC2)O1` [Compound 6f], for which the MIC was 14.9 µM (≈ 12.5 µg/mL) in series [1] and 119 µM (≈ 100 µg/mL) in series [2]. Also, in series [1], the Selectivity index was more than 4. Besides, the CC50 at 72 h in “Cytotoxicity assay” is more than 59.4 µM. Besides, the GI50 in the series on HUVEC and with K-562 was more than 59 µM in each case.

For `C[C@H]1COC2(CCN(c3nc(=O)c4cc(C(=O)OCCI)cc([N+](=O)[O-])c4s3)CC2)O1` [Compound 6e], the MIC in series [1] was 2.78 µM (≈ 1.56 µg/mL); in series [2] it was 44.5 µM (≈ 25 µg/mL). In series [1], the Selectivity index is listed as 28. In the series “Cytotoxicity assay”, this molecule registered a half-maximal cytotoxic concentration (CC50) at 72 h of 78.2 ± 1.4 µM. Also, the GI50 in the series with HUVEC was 30.8 ± 0.5 µM; in the series with K-562, 27.6 ± 0.9 µM.

The record behind these values is PMC11227536, “Modulation of the Meisenheimer complex metabolism of nitro-benzothiazinones by targeted C-6 substitution” (Communications Chemistry, 2024).
